Converted amounts (≈) assume the structure as drawn. Like-named read-outs stand apart in the source and are kept apart here.
What was measured:
M. tuberculosis H37Rv [1] = test: Microdilution alamarBlue assay (MABA) MIC; format: cell-based; settings: Mycobacterium tuberculosis
in vitro = settings: African green monkey
M. tuberculosis H37Rv [2] = test: Checkerboard alamarBlue compound interaction assay; format: cell-based, Mycobacterium tuberculosis; settings: for FIC: FIC of the anti-TB drug in combination with DG70; for MIC: Mycobacterium tuberculosis, H37RV, drug alone, checkerboard; for MIC In combination: anti-TB drug in combination with DG70; for FIC category / FIC index (∑FIC): combination of the named drug with DG70
ATP synthesis in BCG = format: cell-based, Mycobacterium bovis BCG
[3] = system: mycobacterial oxygen consumption; test: Oxygen consumption, methylene blue decolorization; format: cell-based
[4] = system: menaquinone biosynthesis (MenG); format: cell-based, Mycobacterium bovis BCG
BCG = format: cell-based, Mycobacterium bovis BCG
[5] = Table S2, parent H37Rv, read-out: MIC in Mtb H37Rv
[6] = whole-cell activity versus M. tuberculosis, […], read-out: MIC

Structure (SMILES) | MIC (M. tuberculosis H37Rv [1]; [5]) [µg/mL] | MIC (M. tuberculosis H37Rv [1]; [6]) [µg/mL] | CC50 (in vitro) [µg/mL] | further results
COc1ccc(-c2cc(NC(=O)c3ccccc3)ccc2OC)cc1 [JSF-2912] | 9.6 (≈ 28.8 µM) | 9.6 (≈ 28.8 µM) | > 80 | 
O=C(Nc1ccc(O)c(-c2ccc(O)cc2)c1)c1ccc(F)cc1Cl [JSF-2950] | 39.5 (≈ 110 µM) | 39 (≈ 109 µM) | 50 (≈ 140 µM) | 
CSc1ccc2c(c1)N(CCC1CCCCN1C)c1ccccc1S2 (stereo not drawn) [THZ, thioridazine] |  |  |  | FIC (M. tuberculosis H37Rv [2]): 0.5; MIC (M. tuberculosis H37Rv [2]): 6.25 µM; MIC In combination (M. tuberculosis H37Rv [2]): 3.12 µM; FIC category (M. tuberculosis H37Rv [2]): additive (>0.5 to ≤1, additive); FIC index (∑FIC) (M. tuberculosis H37Rv [2]): 0.7; effect of MK4 supplementation on inhibition of ATP synthesis (ATP synthesis in BCG): failed to reverse; effect of MK4 supplementation on inhibition of oxygen consumption [3]: failed to reverse
COc1ccc(-c2cccc(NC(=O)c3ccc(F)cc3Cl)c2)cc1 [JSF-2907] | > 77 | > 77 | 50 (≈ 141 µM) | 
COc1nc2ccc(Br)cc2cc1[C@@H](c1ccccc1)[C@@](O)(CCN(C)C)c1cccc2ccccc12 [BDQ, bedaquiline] |  |  |  | FIC (M. tuberculosis H37Rv [2]): 0.4; MIC (M. tuberculosis H37Rv [2]): 0.39 µM; MIC In combination (M. tuberculosis H37Rv [2]): 0.16 µM; FIC category (M. tuberculosis H37Rv [2]): synergistic (≤0.5, synergistic); FIC index (∑FIC) (M. tuberculosis H37Rv [2]): 0.5; [14C]methyl incorporation into menaquinone [4]: no such effect; killing (drop in CFU) over 21 days (BCG): 5 log10; killing in 4 days (BCG): less than 1 log10; time of treatment to sterile cultures (no CFU detected) (BCG): 21 days; effect of MK4 supplementation on inhibition of ATP synthesis (ATP synthesis in BCG): failed to reverse; effect of MK4 supplementation on inhibition of oxygen consumption ([3]; 400 µM MK4): failed to reverse
COc1ccc(-c2cc(NC(=O)c3ccc(F)cc3)ccc2OC)cc1 [JSF-2909] | > 77 | > 77 | > 50 | 
COc1ccc(NC(=O)c2ccc(F)cc2Cl)cc1 [JSF-2926] | 9.6 (≈ 34.3 µM) | 9.6 (≈ 34.3 µM) | > 70 | 
COc1ccc(-c2cc(NCc3ccc(F)cc3Cl)ccc2OC)cc1 [JSF-2951] | 77 (≈ 207 µM) | 77 (≈ 207 µM) | > 50 | 

Reference: publication PMC5312080 (mBio, 2017)
